In patent publication US7662862B2, “5-HT7 receptor antagonists” (Laboratorios Del Dr. Esteve, S.A., priority 2004, dated 2010):
Where a name gives a salt, the structure may show the parent alone.

Molecular target: Cloned Human Serotonin Receptor, Subtype 7 (h5HT7) (Homo sapiens, UniProt P34969)
Assay: Radioligand binding assay, [125I]LSD, cloned human 5-HT7 receptor expressed in CHO cells (Flashplate)
Details: radioligand [125I]LSD 0.82 nM, 240 min at room temperature, triplicate, read-out: 5-HT7 IC-50
Method: Biological Assays Radioligand Binding
Radioligand binding assays were performed using the Cloned Human Serotonin Receptor, Subtype 7 (h5HT7), expressed in CHO cells, coated on Flashplate (Basic FlashPlate Cat.: SMP200) from PerkinElmer (Cat.: 6120512). The protocol assay was essentially the recommended protocol in the Technical Data Sheet by PerkinEmer Life and Analytical Sciences. The Mass membrane protein/well was typically 12 μg and the Receptor/well was about 9-10 fmoles. The Flashplate were let equilibrate at room temperature for one hour before the addition of the components of the assay mixture. The binding buffer was: 50 mM Tris-HCl, pH 7.4, containing 10 mM MgCl2, 0.5 mM EDTA and 0.5% BSA. The radioligand was [^125I]LSD at a final concentration of 0.82 nM. Nonspecific binding was determined with 50 μM of Clozapine. The assay volume was 25 μl. TopSeal-A were applied onto Flashplate microplates and they were incubated at room temperature for 240 minutes in darkness. The radioactivity were quantified by liquid scintillation spectrophotometry (Wallac 1450 Microbeta Trilux) with a count delay of 4 minutes prior to counting and a counting time of 30 seconds per well. Competition binding data were analyzed by using the LIGAND program (Munson and Rodbard, LIGAND: A versatile, computerized approach for characterization of ligand-binding systems. Anal. Biochem. 107: 220-239, 1980) and assays were performed in triplicate determinations for each point.

Chain of Cloned Human Serotonin Receptor, Subtype 7 (h5HT7) (P34969 whole entry): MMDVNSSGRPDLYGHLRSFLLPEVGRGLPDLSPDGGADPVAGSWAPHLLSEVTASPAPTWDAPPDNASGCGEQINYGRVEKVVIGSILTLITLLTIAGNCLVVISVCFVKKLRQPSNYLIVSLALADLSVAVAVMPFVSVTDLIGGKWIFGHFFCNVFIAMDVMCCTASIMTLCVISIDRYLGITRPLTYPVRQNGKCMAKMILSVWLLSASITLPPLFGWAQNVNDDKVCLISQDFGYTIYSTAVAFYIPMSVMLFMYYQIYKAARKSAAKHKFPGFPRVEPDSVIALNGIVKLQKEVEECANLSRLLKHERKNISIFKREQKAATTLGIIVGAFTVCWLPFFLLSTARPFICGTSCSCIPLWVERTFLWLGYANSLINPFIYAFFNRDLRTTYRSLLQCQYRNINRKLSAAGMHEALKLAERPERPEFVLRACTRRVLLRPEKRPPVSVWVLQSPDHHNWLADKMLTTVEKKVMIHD

IC50 | SMILES
20.3 nM | CCN(CCCN1CCc2cccc3c2C1CC3)S(=O)(=O)c1cccc2ccccc12 (centres unmarked) [Compound 87, Naphthalene-1-sulfonic acid ethyl-[3-(2,2a,4,5-tetrahydro-1H-3-aza-acenaphthylen-3-yl)-propyl]-amide hydrochloride]
4.5 nM | CCN(CCCN1CCc2cccc3c2C1CC3)S(=O)(=O)c1cccc(C)c1 (centres unmarked) [Compound 88, N-Ethyl-3-methyl-N-[3-(2,2a,4,5-tetrahydro-1H-3-aza-acenaphthylen-3-yl)-propyl]-benzenesulfonamide hydrochloride]
6.7 nM | CCN(CCCN1CCc2cccc3c2C1CC3)S(=O)(=O)c1ccc(C)cc1 (centres unmarked) [Compound 89, N-Ethyl-4-methyl-N-[3-(2,2a,4,5-tetrahydro-1H-3-aza-acenaphthylen-3-yl)-propyl]-benzenesulfonamide hydrochloride]

Further lines, the compound ahead of its results:

SMILES | IC50
CCN(CCCN1CCc2cc(OC)c(OC)c3c2C1CC3)S(=O)(=O)c1cc(Cl)ccc1Cl (centres unmarked) [Compound 80, 2,5-Dichloro-N-[3-(7,8-dimethoxy-2,2a,4,5-tetrahydro-1H-3-aza-acenaphthylen-3-yl)-propyl]-N-ethyl-benzene sulfonamide hydrochloride] | 6.2 nM
CCN(CCCN1CCc2cc(OC)c(OC)c3c2C1CC3)S(=O)(=O)c1ccccc1Cl (centres unmarked) [Compound 111, 2-Chloro-N-[3-(7,8-dimethoxy-2,2a,4,5-tetrahydro-1H-3-aza-acenaphthylen-3-yl)-propyl]-N-ethyl-benzenesulfonamide hydrochloride] | 8 nM
